# Values of other authors in patent US9308182B2 (TEVA PHARMACEUTICAL INDUSTRIES, LTD., priority 2012, dated 2016).
# Conditions: non specific MAO inhibitor; all the treatment groups; cited from earlier work
compound,measurement,value
O=C(CCNNC(=O)c1ccncc1)NCc1ccccc1 [nialamide],effect on blood pressure response to tyramine,severe increase in blood pressure
